Measured values: EP2633864A1, “Clip inhibitors and methods of modulating immune function” (The Regents of the University of Colorado, priority 2008, dated 2010)

Assays:
B cell surface CLIP = assay: Effect on B cell surface CLIP (Figure 4); type: cell-based
mouse splenic B cells = assay: TLR ligand induced ectopic CLIP on mouse splenic B cells in vitro (15G4 anti-CLIP/I-Ab versus B220); type: cell-based; conditions: treatment in vitro; figure 12d
Source text: Mouse splenocytes or T-depleted splenocytes were red cell depleted using Geys Solution, and cells were counted. For T-depleted B cell preparations, B cells were separated by discontinuous Percoll (Pharmacia LKB Biotechnology, Piscataway, NJ) gradients (13). Those cells layering at the 1.079/1.085 g/ml interface (1.079 < ρ ≤ 1.085) are designated throughout as resting B cells. Cells layering at the BSS/1.066 g/ml interface (ρ ≤ 1.066) are designated as activated. Viable cells from this latter interface were isolated using Lympholyte-M (Cedarlane Laboratories, Ltd., Hornby, Ontario, Canada). Cells from each layer were harvested, washed, and resuspended at 10^7 cells/ml in PBS containing 5% fetal calf serum.
Total splenocytes, from either B6.129, Ii-deficient, or H2M-deficient mice were cultured with LPS for 24, 48, 72, or 96 hours as indicated. Cells were harvested and stained by two-color fluorescence using 15G4-FITC anti-mouse CLIP/I-A^b versus anti-mouse B220 PE. […]
Freshly isolated splenocytes, single cell suspensions of lymph node cells, resting (or activated) B cells, or primed B cells were isolated from B6.129, Ii-deficient, or H2M-deficient mice and cultured in 24 well plates in complete RPMI medium, with or without the appropriate Toll ligand, at 10^6 cells/ml. […] Cells were stained by two-color fluorescence using 15G4-FITC anti-mouse CLIP/I-A^b versus anti-mouse B220 PE. […]

| SMILES | B cell surface CLIP (B cell surface CLIP) | exogenous CLIP expression on the activated mouse B cells (mouse splenic B cells) |
| --- | --- | --- |
| OC[C@H]1OC(O)C[C@@H](O)[C@@H]1O (some centres unmarked) [2-Deoxyglucose, 2-deoxyglucose] | affects B cell surface CLIP |  |
| CCOCc1nc2c(N)nc3ccccc3c2n1CC(C)(C)O [R848, imidazoquinoline resiquimod] |  | resulted in exogenous CLIP expression |
